Data on 5 molecules can be found in patent US10689425B2, “Collagen-binding synthetic peptidoglycans, preparation, and methods of use” (Purdue Research Foundation, priority 2008, dated 2020).

Groups on a side chain read outwards from the residue. *: point of attachment. PDPH = heterobifunctional sulfhydryl-reactive crosslinker; Dansyl = CN(C)c1cccc2c(S(=O)(=O)*)cccc12

Data set [1] has as its system collagen. The data set is described as follows: SILY binding to collagen (Biacore surface plasmon resonance). How it is done: Biacore studies were performed on a Biacore 2000 using a CM-3 chip (Biacore, Inc., Piscataway, N.J.). The CM-3 chip is coated with covalently attached carboxymethylated dextran, which allows for attachment of the substrate collagen via free amine groups. Flow cells (FCs) 1 and 2 were used, with FC-1 as the reference cell and FC-2 as the collagen immobilized cell. Each FC was activated with EDC-NHS, and 1500RU of collagen was immobilized on FC-2 by flowing 1 mg/mL collagen in sodium acetate, pH 4, buffer at 5 μL/min for 10 min. Unreacted NHS-ester sites were capped with ethanolamine; the control FC-1 was activated and capped with ethanolamin.
To determine peptide binding affinity, SILY was dissolved in 1×HBS-EP buffer (Biacore) at varying concentrations from 100 uM to 1.5 μm in 2-fold dilutions. […] The first 10 injections were buffer injections, which help to prime the system, followed by randomized sample injections, run in triplicate. Analysis was performed using BIAevaluation software (Biacore).
(In general: Surface plasmon resonance follows binding to a sensor surface in real time, without labels.)

Data set [2] relates to Human aortic smooth muscle cells. In words: Collagen remodeling: hydroxyproline content in cell medium. The class given is cell-based. The note with it: cultures up to 30 days. How it is done: Following a method by Grassl, et al. (Grassl, et al., Journal of Biomedical Materials Research 2002, 60, (4), 607-612), which is herein incorporated in its entirety, collagen gels with or without synthetic PG mimics were formed as described in EXAMPLE 16. Human aortic smooth muscle cells (Cascade Biologics, Portland, Oreg.) were seeded within collagen gels by adding 4×10^6 cells/mL to the neutralized collagen solution prior to incubation. The cell-collagen solutions were pipetted into an 8-well Lab-Tek chamber slide and incubated in a humidified 37° C. and 5% CO2 incubator. After gelation, the cell-collagen gels will be covered with 1 mL Medium 231 as prescribed by Cascade. Every 3-4 days, the medium was removed from the samples and the hydroxyproline content measured by a standard hydroxyproline assay (Reddy, 1996).
To measure degraded collagen in the supernatant medium, the sample was lyophilized, the sample hydrolyzed in 2M NaOH at 120° C. for 20 min. After cooling, free hydroxyproline was oxidized by adding chloramine-T (Sigma) and reacting for 25 min at room temperature. Ehrlich's aldehyde reagent (Sigma) was added and allowed to react for 20 min at 65° C. and followed by reading the absorbance at 550 nm on an M-5 spectrophotometer (Molecular Devices). […] Cultures were incubated for up to 30 days and three samples of each treatment measured. […]

In another data set the target is T1, Type I collagen gels (Bos taurus, UniProt P02453+P02465).
T1 construct: purchased Inamed, Freemont, Calif; (Nutragen)
T1 sequence (P02453 162-1217 limits assumed): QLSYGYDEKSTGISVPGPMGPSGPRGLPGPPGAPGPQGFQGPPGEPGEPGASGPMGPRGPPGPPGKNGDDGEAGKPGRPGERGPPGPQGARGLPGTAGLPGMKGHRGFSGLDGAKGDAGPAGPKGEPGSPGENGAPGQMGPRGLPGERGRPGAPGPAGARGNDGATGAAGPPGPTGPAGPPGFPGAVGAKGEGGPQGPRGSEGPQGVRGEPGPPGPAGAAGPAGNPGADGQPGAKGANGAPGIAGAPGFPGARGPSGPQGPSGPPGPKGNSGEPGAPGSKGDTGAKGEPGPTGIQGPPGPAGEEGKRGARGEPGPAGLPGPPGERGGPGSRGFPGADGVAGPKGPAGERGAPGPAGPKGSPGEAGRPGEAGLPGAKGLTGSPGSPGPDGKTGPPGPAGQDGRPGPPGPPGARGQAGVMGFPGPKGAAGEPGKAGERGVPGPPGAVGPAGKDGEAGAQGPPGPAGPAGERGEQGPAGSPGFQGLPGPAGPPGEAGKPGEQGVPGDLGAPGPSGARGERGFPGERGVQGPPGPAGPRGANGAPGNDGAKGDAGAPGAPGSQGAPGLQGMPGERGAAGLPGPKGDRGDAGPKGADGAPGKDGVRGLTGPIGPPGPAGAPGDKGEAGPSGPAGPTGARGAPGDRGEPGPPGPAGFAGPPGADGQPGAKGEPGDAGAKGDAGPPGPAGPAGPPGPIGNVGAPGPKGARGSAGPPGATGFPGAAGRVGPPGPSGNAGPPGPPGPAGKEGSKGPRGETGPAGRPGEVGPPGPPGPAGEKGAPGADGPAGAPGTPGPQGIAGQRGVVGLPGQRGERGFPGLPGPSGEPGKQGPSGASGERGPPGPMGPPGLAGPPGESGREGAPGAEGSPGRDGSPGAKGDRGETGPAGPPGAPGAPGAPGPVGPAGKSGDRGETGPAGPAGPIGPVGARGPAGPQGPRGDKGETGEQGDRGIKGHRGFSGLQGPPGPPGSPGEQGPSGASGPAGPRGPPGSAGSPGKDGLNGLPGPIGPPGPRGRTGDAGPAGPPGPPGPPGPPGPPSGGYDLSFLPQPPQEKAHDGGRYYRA
T1 sequence (P02465 80-1117 limits assumed): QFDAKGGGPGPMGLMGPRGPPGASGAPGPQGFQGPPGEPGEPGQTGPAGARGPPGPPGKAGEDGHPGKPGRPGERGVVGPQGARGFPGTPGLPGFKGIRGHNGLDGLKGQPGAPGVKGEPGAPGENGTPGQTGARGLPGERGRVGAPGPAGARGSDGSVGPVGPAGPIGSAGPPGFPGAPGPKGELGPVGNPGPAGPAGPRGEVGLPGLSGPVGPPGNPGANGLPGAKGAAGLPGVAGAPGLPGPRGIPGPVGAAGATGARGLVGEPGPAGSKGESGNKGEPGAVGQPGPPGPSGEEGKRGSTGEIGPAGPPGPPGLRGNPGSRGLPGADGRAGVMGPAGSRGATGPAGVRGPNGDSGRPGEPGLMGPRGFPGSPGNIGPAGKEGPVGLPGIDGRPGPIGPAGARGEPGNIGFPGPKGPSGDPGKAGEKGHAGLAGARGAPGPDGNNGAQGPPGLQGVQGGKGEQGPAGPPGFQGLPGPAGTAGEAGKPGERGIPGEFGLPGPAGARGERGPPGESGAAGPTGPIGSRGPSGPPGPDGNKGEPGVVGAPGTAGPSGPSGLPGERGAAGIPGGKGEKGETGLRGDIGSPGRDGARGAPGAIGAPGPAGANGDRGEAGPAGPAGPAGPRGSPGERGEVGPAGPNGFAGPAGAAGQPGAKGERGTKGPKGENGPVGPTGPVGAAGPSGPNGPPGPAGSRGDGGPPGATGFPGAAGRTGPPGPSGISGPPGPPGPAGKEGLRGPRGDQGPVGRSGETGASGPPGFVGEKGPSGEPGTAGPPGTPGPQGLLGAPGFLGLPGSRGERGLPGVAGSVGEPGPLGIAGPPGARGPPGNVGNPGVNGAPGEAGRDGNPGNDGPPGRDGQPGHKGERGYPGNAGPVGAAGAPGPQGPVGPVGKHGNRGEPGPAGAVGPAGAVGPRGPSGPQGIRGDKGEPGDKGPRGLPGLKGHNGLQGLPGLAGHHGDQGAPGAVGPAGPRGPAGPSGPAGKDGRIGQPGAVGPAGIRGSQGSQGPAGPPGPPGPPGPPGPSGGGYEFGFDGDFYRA
The data set is described as follows: Cryo-SEM of type I collagen gels (fibril diameter, sheet distance, fibril density). The note with it: for Fibril diameter: Example 29, images at 20,000×, α=0.05. How it is done: (§1) Gels were made with Nutragen collagen (Inamed, Freemont, Calif.) at a final concentration of 4 mg/mL collagen. Nutragen stock is 6.4 mg/mL in 10 mM HCl. Gel preparation was performed on ice, and fresh samples were made before each test. The collagen solution was adjusted to physiologic pH and salt concentration, by adding appropriate volumes of 10×PBS (phosphate buffered saline), 1×PBS, and 1M NaOH. For most experiments, samples of DS, decorin, DS-SILY, or DS-SYIR were added at a 10:1 collagen:sample molar ratio by a final 1×PBS addition (equal volumes across treatments) in which the test samples were dissolved at appropriate concentrations. In this way, samples are constantly kept at pH 7.4 and physiologic salt concentration. Collagen-alone samples received a 1×PBS addition with no sample dissolved. Fibrillogenesis will be induced by incubating neutralized collagen solutions at 37° C. overnight in a humidified chamber to avoid dehydration. Gel solutions with collagen:sample molar ratios of other than 10:1 were prepared similarly.
Gels for cryo-SEM were formed, as in EXAMPLE 16, directly on the SEM stage and incubated at 37° C. overnight. The stages were then secured in a cryo-holder and plunged into liquid nitrogen slush. Samples were then transferred to a Gatan Alto 2500 pre-chamber cooled to −170° C. under vacuum. A free-break surface was created with a cooled scalpel, and each sample evaporated under sublimation conditions for 20 min. The sample was coated by platinum sputter coating for 120 s. […] Fibril diameter was calculated using ImageJ software (NIH) measuring individual fibrils by hand (drawing a line across fibrils and measuring its length after properly setting the scale). There were 3 observers, 3 separate images per treatment, 10 fibrils recorded per image giving a total of 90 measurements per treatment. Sheet distance was calculated using ImageJ, again measuring by hand. […]
Using a modification of EXAMPLE 21 fibril diameters were measured by cryo-SEM. Fibril diameters from cryo-SEM images taken at 20,000× were measured using ImageJ software (NIH). At least 45 fibrils were measured for each treatment. […]
Collagen gels were formed in the presence of each additive at a 10:1 molar ratio, as described in EXAMPLE 16, directly on the SEM stage, processed, and imaged as described. Images at 10,000× were analyzed for fibril density calculations. Images were converted to 8-bit black and white, and threshold values for each image were determined using ImageJ software (NIH). […] The ratio of white to black area was calculated using MatLab software. All measurements were taken in triplicate and thresholds were determined by an observer blinded to the treatment.

The test system of data set [3] is collagen. In words: Microplate fluorescence binding of dansyl-labelled peptide or conjugate to immobilized collagen. The note with it: collagen vs BSA and untreated wells; 100 μM to 10 nM. How it is done: Binding assays were done in a 96-well high-binding plate, black with a clear bottom (Costar). Collagen was compared to untreated wells and BSA coated wells. Collagen and BSA were immobilized at 37° C. for 1 hr by incubating 90 μL/well at concentrations of 2 mg/mL in 10 mM HCl and 1×PBS, respectively. Each well was washed 3× with 1×PBS after incubating. Z-SILY was dissolved in 1×PBS at concentrations from 100 μM to 10 nM in 10-fold dilutions. Wells were incubated for 30 min at 37° C. and rinsed 3× with PBS and then filled with 90 μL of 1×PBS. Fluorescence readings were taken on an M5 Spectramax Spectrophotometer (Molecular Devices) at excitation/emission wavelengths of 335 nm/490 nm respectively.
Binding assays were done in a 96-well high binding plate, black with a clear bottom (Costar). Collagen was compared to untreated wells and BSA coated wells. Collagen and BSA were immobilized at 37° C. for 1 hr by incubating 90 μL/well at concentrations of 2 mg/mL in 10 mM HCl and 1×PBS respectively. […]
Wells were preincubated with DS at 37° C. for 30 min to eliminate nonspecific binding of DS to collagen. […] Fluorescence readings were taken on an M5 Spectramax Spectrophotometer (Molecular Devices) at excitation/emission wavelengths of 335 nm/490 nm respectively.
The fluorescence binding assays described for DS-ZSILY was performed with peptide sequence ZSYIRIADTNITGC (ZDc13).

Data set [4] addresses T2, collagen (Bos taurus, UniProt P02453+P02465).
T2 construct: purchased Inamed, Freemont, Calif; (Nutragen)
The data set is described as follows: Collagen fibrillogenesis by turbidity (absorbance at 313 nm). The class given is biochemical. The following applies: 1:1 collagen:additive molar ratio. How it is done: as §1
Collagen fibrillogenesis was monitored by measuring turbidity related absorbance at 313 nm providing information on rate of fibrillogenesis and fibril diameter. […] A SpectraMax M5 at 37° C. was used to measure absorbance at 313 nm at 30 s intervals for 6 hours. […]

Data set [5] deals with Human coronary artery smooth muscle cells (HCA SMC). In words: Gel compaction by cells seeded in collagen gels. The class given is cell-based. The procedure:
Human coronary artery smooth muscle cells (HCA SMC) (Cascade Biologics) were cultured in growth medium (Medium 231 supplemented with smooth muscle growth factor). Cells from passage 3 were used for all experiments. Differentiation medium (Medium 231 supplemented with 1% FBS and 1× pen/strep) was used for all experiments unless otherwise noted.
Collagen gels were prepared with each additive as described with the exception that the 1×PBS example addition was omitted to accommodate the addition of cells in media. After incubating on ice for 30 min, HCA SMCs in differentiation medium were added to the gel solutions to a final concentration of 1×10^6 cells/mL. Gels were formed in quadruplicate in 48-well non-tissue culture treated plates (Costar) for 6 hrs before adding 500 μL/well differentiation medium. Gels were freed from the well edges after 24 hrs. Medium was changed every 2-3 days and images for compaction were taken at the same time points using a Gel Doc System (Bio-Rad). The cross-sectional area of circular gels correlating to degree of compaction was determined using ImageJ software (NIH). Gels containing no cells were used as a negative control and cells in collagen gels absent additive were used as a positive control. By day 10 all gels had compacted to approximately 10% of the original gel area, and differences between additives were small.

T2 sequence (P02453 162-1217 limits assumed): as the sequence (P02453 162-1217 limits assumed) above
T2 sequence (P02465 80-1117 limits assumed): as the sequence (P02465 80-1117 limits assumed) above

As for RRANAALKAGELYKSILYGC, the “Reversibility of binding to collagen” value in the data set with collagen [1] (association/disassociation curves, FIG. 3) was “binds reversibly with collagen”. Also, the Kd – broadly, the free concentration of one partner at which half of the binding sites on the other are occupied at equilibrium, for simple one-to-one binding – on collagen [1] (calculated from the on-off binding kinetics, collagen immobilized on CM-3 chip) was 1200 nM. For the same molecule, the “Collagen degradation by hydroxyproline content in cell medium” value in data set [2] is reported as “greater collagen degradation compared to collagen alone”. The “Fibril density (ratio of fibril containing area to void space)” value at Type I collagen gels (10:1 collagen:additive, images at 10,000×) was “significantly greater fibril density”. The Fibril diameter entry at Type I collagen gels is reported as “decrease in fibril diameter”.

Regarding “DS-ZDc13: dermatan sulfate conjugate of ZSYIRIADTNITGC (ZDc13)”, the “Specific binding to collagen-treated wells” value in the data set on collagen [3] is recorded as “binds specifically to the collagen surface in a dose-dependent manner”.

As for “DS-Z-SILY: dermatan sulfate conjugated to dansyl-modified peptide Z-SILY (Dansyl-GRRANAALKAGELYKSILYGC([PDPH-oxidized dermatan sulfate])-NH2)”, in the data set on collagen [3], the “Specific binding to collagen-treated wells” value was “binds specifically to the collagen-treated wells over BSA and untreated wells”.

Regarding SYIRIADTNITGC [Dc13, Dc13 peptide], the Effect on fibrillogenesis entry in the data set with collagen [4] was “little effect on fibrillogenesis compared to collagen alone”. In addition, the “Collagen degradation by hydroxyproline content in cell medium” value in data set [2] was “greater collagen degradation compared to collagen alone”. Moreover, the Fibril diameter result in the data set with Type I collagen gels is given as “does not affect fibril diameter”.

B1: Decorin: proteoglycan known to influence collagen fibrillogenesis (protein, UniProt P07585 31-359, looked up)
Decorin: DEASGIGPEVPDDRDFEPSLGPVCPFRCQCHLRVVQCSDLGLDKVPKDLPPDTTLLDLQNNKITEIKDGDFKNLKNLHALILVNNKISKVSPGAFTPLVKLERLYLSKNQLKELPEKMPKTLQELRAHENEITKVRKVTFNGLNQMIVIELGTNPLKSSGIENGAFQGMKKLSYIRIADTNITSIPQGLPPSLTELHLDGNKISRVDAASLKGLNNLAKLGLSFNSISAVDNGSLANTPHLRELHLDNNKLTRVPGGLAEHKYIQVVYLHNNNISVVGSSDFCPPGHNTKKASYSGVSLFSNPVQYWEIQPSTFRCVYVRSAIQLGNYK
As to B1, the Fibril diameter result with Type I collagen gels is listed as “significantly decrease fibril diameter over collagen or collagen+dermatan sulfate”. In addition, the “Gel compaction, statistical significance” value in data set [5] (Day 7) was “significant against all samples”; in data set [5] (Days 3 and 5), “significant relative to collagen and DS”.
